Assay results taken from patent US7507281B2, “Antimicrobial cementitious composition, method and article” (Microban Products Company, priority 2005, dated 2009).

How the values were obtained:
S. aureus = test: Zone of inhibition of fresh cured BAL grout discs, S. aureus (Example 1); type: cell-based; settings: Staphylococcus aureus
K. pneumoniae = test: Zone of inhibition of fresh cured BAL grout discs, K. pneumoniae (Example 1); type: cell-based; settings: Klebsiella pneumoniae
Aspergillus niger = test: AATCC 30 Part III antifungal test of grout discs after QUV/Xenon exposure and water-spray neutralization (Example 2); type: cell-based; settings: for Growth A. niger: weathered and pH-neutralized, 168-hour incubation, sulfate
Procedure: Grout samples were prepared and cured as in Example 1, with antimicrobial agent admixed into the dry compound at levels of 0 ppm, 1000 ppm, and 2000 ppm based upon the total weight of the dry mix and antimicrobial agent (excluding water). Water was added, the slurry mixed, and 1.5-inch diameter pucks cast.
After air-curing, the samples were exposed for eight hours in either of QUV/Spray Accelerated Weathering Controller or Xenon Testing Chamber Xe-3HS (both by Q-Panel Lab Products, Cleveland, Ohio). The QUV exposure is an assay well known in the art for simulating aging, discoloration and/or degradation caused by conditions of ultraviolet radiation exposure, such as would be encountered in an outdoor application.
Thereafter, the sample discs were subjected to one hour of water spray, followed by one hour of condensation, alternatingly repeated for a total of eight hours. This treatment neutralizes the pH of the grout samples, simulating brief real-world exposure of the grout articles to, e.g., a shower stall application.
Samples then were plated against Aspergillus niger using the 30 Part III test. At the end of the 168-hour incubation period, the test plates were removed from the test chamber and the samples were evaluated for fungal attack and encroachment. The antimicrobial agent tested and the results of the evaluation are shown in Table 2; control and experimental plates are shown in FIGS. 1-3.

[1] = UV stability / discoloration under ultraviolet irradiation; type: physicochemical; settings: UVA 340 lamps, 168 hrs
Excerpt: Resistance to ultraviolet radiation and discoloring is advantageous given the typical outdoor environment of cured cementitious articles.

Thermal stability = type: physicochemical
Procedure: This species also appears to be thermally stable up to 160° C. and above. Thermal stability makes imazalil agent especially well-suited for inclusion in the production of cementitious powder by various manufacturers, as these powders are typically dried and packed at elevated temperatures. Many other antimicrobial/antifungal agents tend to discolor and clump when so thermally exposed.

[2] = 1000 ppm imazalil sulfate in BAL grout disc, fresh cured
[3] = 2000 ppm imazalil sulfate in BAL grout disc, fresh cured

Row | SMILES | zone of inhibition at 500 ppm (S. aureus; BAL, read-out: Zone of Inhibition, mm S. aureus) [mm] | zone of inhibition at 1000 ppm (S. aureus; [2]) [mm] | zone of inhibition at 2000 ppm (S. aureus; [3]) [mm] | zone of inhibition at 500 ppm (K. pneumoniae; BAL, read-out: Zone of Inhibition, mm K. pneumoniae) [mm] | zone of inhibition at 1000 ppm (K. pneumoniae; [2]) [mm] | zone of inhibition at 2000 ppm (K. pneumoniae; [3]) [mm] | Growth A. niger (Aspergillus niger; 1000 ppm imazalil sulfate in grout disc) | Growth A. niger (Aspergillus niger; 2000 ppm imazalil sulfate in grout disc) | Discoloration after prolonged exposure to ultraviolet irradiation [1] | Thermally stable up to (Thermal stability) [°C] | Resistance of grout puck to fungal attack (FIG. 2) (Aspergillus niger; 1000 ppm imazalil agent in BAL grout, Aspergillus niger) | Disruption to fungal encroachment by grout sample (FIG. 3) (Aspergillus niger; 2000 ppm imazalil agent in BAL grout, Aspergillus niger)
1 | C=CCOC(Cn1ccnc1)c1ccc(Cl)cc1Cl.O=S(=O)(O)O (racemic) [Imazalil Sulfate, (±)-1-[2-(2,4-dichlorophenyl)-2-(2-propenyloxy)ethyl]-1H-imidazole sulfate] | 5 | 6 | 6 | 5 | 5 | 5 | no growth | no growth | – | – | – | –
2 | C=CCOC(Cn1ccnc1)c1ccc(Cl)cc1Cl (racemic) [imazalil agent, (±)-1-[2-(2,4-dichlorophenyl)-2-(2-propenyloxy)ethyl]-1H-imidazole] | – | – | – | – | – | – | – | – | no discoloration | ≥ 160 | strong resistance to fungal attack | significant disruption to fungal encroachment
